One assay has as its target androgen receptor (AR) (Homo sapiens (Human), UniProt P10275). The assay can be described thus: Androgen receptor transactivation test in PALM cell line (cross curves against methyl trienolone). The settings on record: read-out: Kdapp. It counts as cell-based. As to the method:
This AR inhibiting activity was measured in a transactivation test by the dissociation constants KdR (rest), KdA (active), and Kdapp (apparent).
A compound may be said to be an AR inhibitor if it has a dissociation constant, Kdapp, of less than or equal to 1 μM, and a KdR/KdA ratio of less than or equal to 10 in a transactivation test.
The transactivation test is carried out in the cell line PALM (PC3 androgen receptor Luciferase MMTV), which is a stable transfectant containing the plasmids PMMTV-neo-Luc (reporter gene) and pSG5puro-AR.
In this study, the affinity of each test compound for the 2 states of the receptor (KdR and KdA) is determined together with the apparent Kd (KdApp). This constant depends upon the 2 Kd's (KdR and KdA), but also depends on the initial equilibrium of the receptor between the active state and rest state (L0) and on its expression rate. It is determined by the following formula: 1/KdApp=(L0/(1+L0))×(1/KdR)+(1/(1+L0))×(1/KdA)
In order to determine these constants, “cross curves” of the test compound against a reference agonist, methyl trienolone, are carried out on a 96-well plate. The test compound is used in 10 concentrations and the reference agonist in 7 concentrations.

In assay [1] the test system is sebaceous gland of the ear of a Syrian hamster. The assay can be described thus: In vivo animal model with reduction in the size of the sebaceous glands (Syrian hamster ear). The settings on record: 1 g %/mL solution, topical on ear, daily for 24 days, compared to control (absolute ethanol). The source says:
The model of the sebaceous gland of the ear of a Syrian hamster described by Plewig and Luderschmidt in J. Inv. Derm., (1977), pp. 171-176 is a classical tool for the in vivo study of the function of the sebaceous gland. In fact, the inner faces of the ear lobes of the hamster contain a high number of sebaceous glands described as being similar to those of human sebaceous follicles in terms of certain characteristics, including their morphology and response to androgens and anti-androgens. In fact the growth and lipogenesis of the sebaceous glands on the inner face of the ear of Syrian hamsters depend on the androgens. The anti-androgenic activity of test compounds can be easily evaluated by measuring the size of the sebaceous glands. Moreover, this model has been selected to evaluate the efficacy of the antagonists of the receptor to the androgens on the sebaceous gland.
Test compounds were evaluated according to the following protocol: male hamsters aged weeks were treated daily for 24 days on the inner face of the right ear with 30 μL of a solution of the test compound to be evaluated in absolute ethanol. For each test compound, groups were treated with solutions at a range of concentrations (e.g., from 0.01 g %/mL to 3 g %/mL), as well as absolute ethanol used as a control. (A concentration of 3 g %/mL means a concentration of 0.03 g/mL.)
At the end of the study, samples were taken from the treated ears. The skin of the inner face of the ear was separated from the cartilage. Under a binocular magnifying glass, two zones of 4 mm^2 were numbered. The size of the sebaceous glands was measured on the numerical images by manually trimming the glands by means of image analysis software (TINA.20). For each image some twenty glands were measured. The average area of the sebaceous glands was calculated for each treatment group.
A Student t-test for independent groups comparing each dose with vehicle was carried out to compare the average size of the sebaceous glands as a function of the doses applied. When the evolution of the effect is represented graphically as a function of the administered dose of test compound, the curve obtained is sigmoid in shape. In the median part, this sigmoid may be likened to a straight line. The dose corresponding to 50% of the maximum effect corresponds graphically to the point located in the centre of the linear section defined as “effective dose 50”. This DE50 characterises the potency of the test compound.

Setting [2] is: apparent dissociation constant, PALM cells (PC3 androgen receptor Luciferase MMTV).

Like-named read-outs stand apart in the source and are kept apart here.

Chain of androgen receptor (AR) (P10275 whole entry): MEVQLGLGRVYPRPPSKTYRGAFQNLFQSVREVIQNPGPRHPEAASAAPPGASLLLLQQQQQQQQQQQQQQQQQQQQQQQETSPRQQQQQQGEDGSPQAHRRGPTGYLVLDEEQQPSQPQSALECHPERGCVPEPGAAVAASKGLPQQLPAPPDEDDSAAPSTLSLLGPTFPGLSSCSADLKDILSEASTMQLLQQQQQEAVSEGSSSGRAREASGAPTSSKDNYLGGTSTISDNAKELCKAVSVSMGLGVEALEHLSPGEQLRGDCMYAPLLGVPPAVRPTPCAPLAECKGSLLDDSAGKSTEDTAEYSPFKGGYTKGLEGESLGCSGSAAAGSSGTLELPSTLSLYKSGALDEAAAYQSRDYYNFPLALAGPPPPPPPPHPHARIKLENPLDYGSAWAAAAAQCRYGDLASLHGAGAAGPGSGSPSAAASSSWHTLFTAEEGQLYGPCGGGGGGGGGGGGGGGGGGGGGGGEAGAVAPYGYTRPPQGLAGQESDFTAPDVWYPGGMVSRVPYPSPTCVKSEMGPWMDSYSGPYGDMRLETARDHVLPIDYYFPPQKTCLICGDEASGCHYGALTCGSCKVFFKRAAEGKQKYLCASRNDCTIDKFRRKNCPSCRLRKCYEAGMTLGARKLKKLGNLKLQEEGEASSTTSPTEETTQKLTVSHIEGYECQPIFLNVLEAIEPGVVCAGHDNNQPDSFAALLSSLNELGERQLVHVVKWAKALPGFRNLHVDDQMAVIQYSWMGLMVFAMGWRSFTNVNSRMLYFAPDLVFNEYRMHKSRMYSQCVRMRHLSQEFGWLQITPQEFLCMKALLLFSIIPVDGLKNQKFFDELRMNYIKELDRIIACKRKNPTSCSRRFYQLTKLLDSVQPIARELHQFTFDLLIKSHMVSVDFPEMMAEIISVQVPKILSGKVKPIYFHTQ

With `CCCC(O)(CC)C(=O)Nc1cc(Br)nc(OC)c1` (stereo not drawn) [Compound 75A, 2-Ethyl-2-hydroxy-pentanoic acid (2-bromo-6-methoxy-pyridin-4-yl)-amide], the Kd at androgen receptor (AR) (threshold lists, PALM cells) was ≤ 100 nM. Same read-out and setting: under `CCC(O)(C(=O)Nc1cc(Br)nc(OC)c1)C1CCCC1` (stereo not drawn) [Compound 9, N-(2-Bromo-6-methoxy-pyridin-4-yl)-2-cyclopentyl-2-hydroxy-butyramide] stands ≤ 30 nM; under `CCC(O)(C(=O)Nc1ccnc(Br)c1)C1CCCC1` (stereo not drawn) [Compound 51, N-(2-Bromo-pyridin-4-yl)-2-cyclopentyl-2-hydroxy-butyramide], ≤ 30 nM.

Turning to `CCCCC(C)(O)C(=O)Nc1ccnc(Br)c1` (single isomer, unassigned) [Compound 80B, 2-Hydroxy-2-methyl-hexanoic acid (2-bromo-pyridin-4-yl)-amide], at androgen receptor (AR) (threshold lists, PALM cells), the Kd is ≤ 300 nM.

Take `COc1cc(NC(=O)C(C)(C)O)cc(Br)n1` [Compound 38, N-(2-Bromo-6-methoxy-pyridin-4-yl)-2-hydroxy-2-methyl-propionamide]: the Kd at androgen receptor (AR) (threshold lists, PALM cells) was ≤ 300 nM. On to `CCC(O)(C(=O)Nc1ccnc(Br)c1)C1CCCC1` (stereo not drawn) [Compound 77A, N-(2-Bromo-pyridin-4-yl)-2-cyclopentyl-2-hydroxy-butyramide], for which the Kd on androgen receptor (AR) (threshold lists, PALM cells) was ≤ 30 nM.

In the case of `CCCCC(O)(CCCC)C(=O)Nc1ccnc(Br)c1` [Compound 23, 2-Butyl-2-hydroxy-hexanoic acid (2-bromo-pyridin-4-yl)-amide], the Kd is 15 nM on androgen receptor (AR) (setting [2]) and ≤ 30 nM at androgen receptor (AR) (threshold lists, PALM cells). For the same compound, in assay [1], the “Reduction of sebaceous glands (following treatment at 1 g %/mL)” value was determined as 51%.

In the case of `CCCC(O)(C(=O)Nc1cc(Br)nc(OC)c1)C(C)C` (stereo not drawn) [Compound 79B, 2-Hydroxy-2-isopropyl-pentanoic acid (2-bromo-6-methoxy-pyridin-4-yl)-amide], the Kd on androgen receptor (AR) (threshold lists, PALM cells) was ≤ 30 nM. On the same count and under the same terms, next, `COc1cc(NC(=O)C(C)(O)C(C)C)cc(Br)n1` (stereo not drawn) [Compound 25, N-(2-Bromo-6-methoxy-pyridin-4-yl)-2-hydroxy-2,3-dimethyl-butyramide]: ≤ 30 nM.

For `COc1cc(NC(=O)C(C)(O)CC(C)C)cc(Br)n1` (racemic) [Compound 41, 2-Hydroxy-2,4-dimethyl-pentanoic acid (2-bromo-6-methoxy-pyridin-4-yl)-amide], the Kd at androgen receptor (AR) (setting [2]) is 20 nM; on androgen receptor (AR) (threshold lists, PALM cells), ≤ 30 nM. Moreover, in assay [1], the “Reduction of sebaceous glands (following treatment at 1 g %/mL)” value is 61%. For `CCCCC(C)(O)C(=O)Nc1cc(Br)nc(OC)c1` (stereo not drawn) [Compound 72A, 2-Hydroxy-2-methyl-hexanoic acid (2-bromo-6-methoxy-pyridin-4-yl)-amide], the Kd at androgen receptor (AR) (threshold lists, PALM cells) was ≤ 30 nM. Also, the “Reduction of sebaceous glands (following treatment at 1 g %/mL)” value in assay [1] worked out at 48%. On to `COc1ccc(CCC(C)(O)C(=O)Nc2ccnc(Br)c2)cc1` (stereo not drawn) [Compound 24, N-(2-Bromo-pyridin-4-yl)-2-hydroxy-4-(4-methoxy-phenyl)-2-methyl-butyramide], for which the Kd at androgen receptor (AR) (setting [2]) was 300 nM; on androgen receptor (AR) (threshold lists, PALM cells) it was ≤ 300 nM.

Turning to `COc1cc(NC(=O)C(C)(O)C(C)C)cc(Br)n1` (stereo not drawn) [Compound 76B, N-(2-Bromo-6-methoxy-pyridin-4-yl)-2-hydroxy-2,3-dimethyl-butyramide], at androgen receptor (AR) (threshold lists, PALM cells), the Kd was ≤ 100 nM. On to `CCCC(O)(CC)C(=O)Nc1cc(Br)nc(OC)c1` (stereo not drawn) [Compound 19, 2-Ethyl-2-hydroxy-pentanoic acid (2-bromo-6-methoxy-pyridin-4-yl)-amide], for which the Kd at androgen receptor (AR) (threshold lists, PALM cells) was ≤ 30 nM. For the same compound, the “Reduction of sebaceous glands (following treatment at 1 g %/mL)” value in assay [1] is given as 61%. For the compound `CCC(O)(C(=O)Nc1cc(Br)nc(OC)c1)C(C)C` (stereo not drawn) [Compound 74B, N-(2-Bromo-6-methoxy-pyridin-4-yl)-2-ethyl-2-hydroxy-3-methyl-butyramide], the Kd at androgen receptor (AR) (threshold lists, PALM cells) is ≤ 30 nM. Besides, the “Reduction of sebaceous glands (following treatment at 1 g %/mL)” value in assay [1] is 61%.

On to `COc1cc(NC(=O)C(C)(O)C(C)C)cc(Br)n1` (stereo not drawn) [Compound 76A, N-(2-Bromo-6-methoxy-pyridin-4-yl)-2-hydroxy-2,3-dimethyl-butyramide], for which the Kd on androgen receptor (AR) (threshold lists, PALM cells) is ≤ 30 nM. For the same compound, the “Reduction of sebaceous glands (following treatment at 1 g %/mL)” value in assay [1] is reported as 58%. Regarding `CCCC(C)(O)C(=O)Nc1cc(Br)nc(OC)c1` (stereo not drawn) [Compound 60, 2-Hydroxy-2-methyl-pentanoic acid (2-bromo-6-methoxy-pyridin-4-yl)-amide], at androgen receptor (AR) (threshold lists, PALM cells), the Kd was ≤ 100 nM. For the compound `CCC(O)(C(=O)Nc1cc(Br)nc(OC)c1)C(C)C` (stereo not drawn) [Compound 13, N-(2-Bromo-6-methoxy-pyridin-4-yl)-2-ethyl-2-hydroxy-3-methyl-butyramide], the Kd at androgen receptor (AR) (threshold lists, PALM cells) was ≤ 30 nM.

Take `CCC(O)(C(=O)Nc1cc(Br)nc(OC)c1)C(C)C` (stereo not drawn) [Compound 74A, N-(2-Bromo-6-methoxy-pyridin-4-yl)-2-ethyl-2-hydroxy-3-methyl-butyramide]: the Kd at androgen receptor (AR) (threshold lists, PALM cells) was ≤ 30 nM. As to `CCC(O)(C(=O)Nc1cc(Br)nc(OC)c1)C1CCCC1` (stereo not drawn) [Compound 73A, N-(2-Bromo-6-methoxy-pyridin-4-yl)-2-cyclopentyl-2-hydroxy-butyramide], on androgen receptor (AR) (threshold lists, PALM cells), the Kd was ≤ 30 nM. Still for that read-out and setting: under `COc1cc(NC(=O)C(C)(O)c2ccc(F)cc2)ccn1` (stereo not drawn) [Compound 27, 2-(4-Fluoro-phenyl)-2-hydroxy-N-(2-methoxy-pyridin-4-yl)-propionamide] stands ≤ 300 nM; under `CCCC(C)(O)C(=O)Nc1cc(Br)nc(OC)c1` (stereo not drawn) [Compound 78A, 2-Hydroxy-2-methyl-pentanoic acid (2-bromo-6-methoxy-pyridin-4-yl)-amide], ≤ 100 nM; under `CCC(O)(C(=O)Nc1cc(Br)nc(OC)c1)C1CCCC1` (stereo not drawn) [Compound 73B, N-(2-Bromo-6-methoxy-pyridin-4-yl)-2-cyclopentyl-2-hydroxy-butyramide], ≤ 100 nM.

For the compound `COc1cc(NC(=O)C(C)(O)CC(C)C)cc(Br)n1` (single isomer, unassigned) [Compound 71A], at androgen receptor (AR) (threshold lists, PALM cells), the Kd is ≤ 30 nM. As to `CCCC(O)(C(=O)Nc1cc(Br)nc(OC)c1)C(C)C` (stereo not drawn) [Compound 64, 2-Hydroxy-2-isopropyl-pentanoic acid (2-bromo-6-methoxy-pyridin-4-yl)-amide], at androgen receptor (AR) (threshold lists, PALM cells), the Kd was ≤ 30 nM. On to `CCC(O)(C(=O)Nc1ccnc(Br)c1)C1CCCC1` (stereo not drawn) [Compound 77B, N-(2-Bromo-pyridin-4-yl)-2-cyclopentyl-2-hydroxy-butyramide], for which the Kd on androgen receptor (AR) (threshold lists, PALM cells) was ≤ 30 nM. As for `COc1cc(NC(=O)C(C)(O)C2CCOCC2)cc(Br)n1` (stereo not drawn) [Compound 69, N-(2-Bromo-6-methoxy-pyridin-4-yl)-2-hydroxy-2-(tetrahydro-pyran-4-yl)-propionamide], at androgen receptor (AR) (threshold lists, PALM cells), the Kd is ≤ 1000 nM. On the same count and under the same terms, next, `CCCCC(O)(CCCC)C(=O)Nc1cc(Br)nc(OC)c1` [Compound 66, 2-Butyl-2-hydroxy-hexanoic acid (2-bromo-6-methoxy-pyridin-4-yl)-amide]: ≤ 100 nM.

Take `CCCC(O)(CC)C(=O)Nc1cc(Br)nc(OC)c1` (stereo not drawn) [Compound 75B, 2-Ethyl-2-hydroxy-pentanoic acid (2-bromo-6-methoxy-pyridin-4-yl)-amide]: on androgen receptor (AR) (threshold lists, PALM cells), the Kd is ≤ 100 nM.

As to `CC(O)(C(=O)Nc1ccnc(Br)c1)c1ccccc1` (stereo not drawn) [Compound 32, N-(2-Bromo-pyridin-4-yl)-2-hydroxy-2-phenyl-propionamide], the Kd on androgen receptor (AR) (setting [2]) was 100 nM; on androgen receptor (AR) (threshold lists, PALM cells) it was ≤ 100 nM. Taken in the same sequence, the figures for `CCCC(C)(O)C(=O)Nc1ccnc(C(=O)OC)c1` (stereo not drawn) [Compound 59, 4-(2-Hydroxy-2-methyl-pentanoylamino)-pyridine-2-carboxylic acid methyl ester] were 6000 nM and ≤ 10000 nM.
